From patent publication US8124793B2, “Derivatives of ethylene methanedisulfonate as cancer chemotherapeutic agents” (priority 2007, dated 2012)

Legend:
Assay type in all cases: cell-based
[1] = test system: SR; experiment: NCI screen, growth of human tumor cells: Leukemia SR; conditions: SR (Leukemia), 10^−4 molar
Protocol: (§1) In the NCI screening process, each compound was tested and described by a minimum of 60 data points. The test data include, but are not limited to the type of cancer, the molar concentration used in the screen, and the percent growth of the cancer. In some cases, NMR and elemental analysis were used for structural assignment.

[2] = test system: HCC-2998; experiment: NCI screen, growth of human tumor cells: HCC-2998 (listed under Non-Small Cell Lung); conditions: HCC-2998 (under Non-Small Cell Lung), 10^−4 molar
Protocol: as §1

[3] = test system: SF-268; experiment: NCI screen, growth of human tumor cells: CNS Cancer SF-268; conditions: SF-268 (CNS Cancer), 10^−4 molar
Protocol: as §1

[4] = test system: SF-539; experiment: NCI screen, growth of human tumor cells: CNS Cancer SF-539; conditions: SF-539 (CNS Cancer), 10^−4 molar
Protocol: as §1

[5] = test system: 786-0; experiment: NCI screen, growth of human tumor cells: Renal Cancer 786-0; conditions: 786-0 (Renal Cancer), 10^−4 molar
Protocol: as §1

[6] = test system: human cancer cells; experiment: NCI screen summary over the cancers tested (negative growth of human cancer cells); conditions: 10^−4 M conc.; cancers with negative growth / cancers tested
Protocol: as §1
The derivatives in the tables are grouped using the same category as in the tables 1-6.

[7] = test system: SNB-19; experiment: NCI screen, growth of human tumor cells: CNS Cancer SNB-19
Protocol: as §1

[8] = test system: CCRF-CEM; experiment: NCI screen, growth of human tumor cells: Leukemia CCRF-CEM; conditions: CCRF-CEM (Leukemia), 10^−4 molar
Protocol: as §1

[9] = test system: K562; experiment: NCI screen, growth of human tumor cells: Leukemia K562; conditions: K562 (Leukemia), 10^−4 molar
Protocol: as §1

[10] = test system: MOLT-4; experiment: NCI screen, growth of human tumor cells: Leukemia MOLT-4; conditions: MOLT-4 (Leukemia), 10^−4 molar
Protocol: as §1

[11] = test system: NCI-H460; experiment: NCI screen, growth of human tumor cells: Non-Small Cell Lung NCI-H460; conditions: NCI-H460 (Non-Small Cell Lung), 10^−4 molar
Protocol: as §1

[12] = test system: SNB-75; experiment: NCI screen, growth of human tumor cells: CNS Cancer SNB-75; conditions: SNB-75 (CNS Cancer), 10^−4 molar
Protocol: as §1

[13] = test system: U-251; experiment: NCI screen, growth of human tumor cells: CNS Cancer U-251; conditions: U-251 (CNS Cancer), 10^−4 molar
Protocol: as §1

[14] = test system: UACC-62; experiment: NCI screen, growth of human tumor cells: Melanoma UACC-62; conditions: UACC-62 (Melanoma), 10^−4 molar
Protocol: as §1

[15] = test system: ACHN; experiment: NCI screen, growth of human tumor cells: Renal Cancer ACHN; conditions: ACHN (Renal Cancer), 10^−4 molar
Protocol: as §1

[16] = test system: CAKI-1; experiment: NCI screen, growth of human tumor cells: Renal Cancer CAKI-1; conditions: CAKI-1 (Renal Cancer), 10^−4 molar
Protocol: as §1

[17] = test system: HCT-116; experiment: NCI screen, growth of human tumor cells: Colon Cancer HCT-116; conditions: HCT-116 (Colon Cancer), 10^−4 molar
Protocol: as §1

[18] = test system: LOXIMVI; experiment: NCI screen, growth of human tumor cells: Melanoma LOXIMVI; conditions: LOXIMVI (Melanoma), 10^−4 molar
Protocol: as §1

[19] = test system: PC-3; experiment: NCI screen, growth of human tumor cells: Prostate Cancer PC-3; conditions: PC-3 (Prostate Cancer), 10^−4 molar
Protocol: as §1

[20] = test system: MALME-3M; experiment: NCI screen, growth of human tumor cells: Melanoma MALME-3M; conditions: MALME-3M, 10^−4 molar
Protocol: as §1

## CC1(C)OCC(COC(=O)C(=O)OC(C(=O)OCC2COC(C)(C)O2)=C2S(=O)(=O)OCCOS2(=O)=O)O1 (stereo not shown) [NSC 737275]
[1]
  percent of growth of human tumor cells: 7%
[2]
  percent of growth of human tumor cells: −12%
[3]
  percent of growth of human tumor cells: 24%
[4]
  percent of growth of human tumor cells: 15%
[5]
  percent of growth of human tumor cells: 17%
[6]
  Percentage of cancers showing negative growth cancers tested: 10^−4 M conc. = 1/5 = 20%

## O=S(=O)([O-])OCCCC1S(=O)(=O)OCCOS1(=O)=O.[Na+] [NSC 674994, butane-1-[hydroxyhydrogensulfate]-4,4-[ethylenedisulfonate]]
[7]; SNB-19, 10^−4 molar
  % Growth: 36%
[7]; SNB-19, 10^−5 molar
  % Growth: 45%
[7]; SNB-19, 10^−6 molar
  % Growth: 47%
[7]; SNB-19, 10^−7 molar
  % Growth: 73%
[7]; SNB-19, 10^−8 molar
  % Growth: 67%
[6]
  Percentage of cancers showing negative growth cancers tested: 10^−4 M conc. = 0/1 = 0%

## CC1S(=O)(=O)OCCOS1(=O)=O [NSC 372239]
[8]
  percent of growth of human tumor cells: −6%
[9]
  percent of growth of human tumor cells: 12%
[10]
  percent of growth of human tumor cells: 12%
[11]
  percent of growth of human tumor cells: 2%
[3]
  percent of growth of human tumor cells: 29%
[7]; SNB-19 (CNS Cancer), 10^−4 molar
  percent of growth of human tumor cells: 26%
[4]
  percent of growth of human tumor cells: 28%
[12]
  percent of growth of human tumor cells: 28%
[13]
  percent of growth of human tumor cells: 16%
[14]
  percent of growth of human tumor cells: −14%
[15]
  percent of growth of human tumor cells: 20%
[16]
  percent of growth of human tumor cells: 20%
[6]
  Percentage of cancers showing negative growth cancers tested: 2/12 = 17%

## O=S1(=O)OCCOS(=O)(=O)[C-]1S(=O)(=O)c1cccc2ccccc12.[Na+] [NSC 679044]
[9]
  percent of growth of human tumor cells: 15%
[17]
  percent of growth of human tumor cells: −52%
[18]
  percent of growth of human tumor cells: 23%
[19]
  percent of growth of human tumor cells: 23%
[6]
  Percentage of cancers showing negative growth cancers tested: 10^−4 M conc. = 1/4 = 25%

## COC(=O)c1cc(/C=C/C(=O)Cc2ccccc2)cn1S(=O)(=O)c1ccccc1 [compound 679534]
[20]
  % Growth: −88%
